# Source: patent US20250381165A1, “Method of Use for Benzofuran Compounds” (Tampa Bay Research Institute, Inc., priority 2024, published 2025)
# Key:
# [1] = system: RAW 264.7; experiment: CellTiter-Glo cell viability, RAW 264.7; type: cell-based, murine; conditions: Mus musculus, RAW264.7
# Protocol: BzFβ was then examined for its effect on the viability of several murine and human cell lines and primary murine splenocytes. The cytotoxicity of BzFβ was assessed using the CellTiter-Glo […] assay system according to manufacturer's instructions to determine BzFβ's effect on the viability of several murine and human cell lines and primary murine splenocytes.
# DC2.4 cell line (Dr. Kenneth Rock, University of Massachusetts), RAW 264.7 cell line (American Type Culture Collection (ATCC), Manassas, VA; TIB 71), and IMG cell line (Millipore™, Merck KGaA, Burlington, MA; cat. no. SC-C134) were each cultured in complete Dulbecco's Modified Eagle Medium (cDMEM) containing […] glucose (Gibco™, Thermo Fisher Scientific Inc., Waltham, MA; cat. no. 10566-016) and supplemented with GlutaMAX, 50 U/mL penicillin and 50 µg/mL streptomycin (Gibco™; cat. no. 15070-063) and 10% heat inactivated fetal bovine serum (FBS) (R&D Systems, Inc., Minneapolis, MN; cat. no. […]
# The cytotoxicity of BzFβ was assessed using the CellTiter-Glo cell […] viability assay system […] cat. no. […] CellTiter-Glo was added 1:1 in the media and the level of chemiluminescence was measured using luminescence at wavelengths of 200 nm to 700 nm through a photomultiplier on BioTek's Synergy HTX multimode microplate reader. […]
# [2] = system: splenocytes (B3Z activation); experiment: In vivo SIINFEKL loading, splenocytes used ex vivo to activate B3Z; set-up: species or system C57BL/6NCrl mice
# Protocol: Six- to ten-week-old male and female C57BL/6NCrl mice (Charles River Laboratories, Wilmington MA; cat. no. 027) were used for all animal studies. The mice were maintained in accord with the NIH Guide for the Care and Use of Laboratory Animals. Experimental procedures were performed in accord with research protocols approved by the Tampa Bay Research Institute's Institutional Animal Care and Use Committee. Mice were maintained in an INOVIVE individually ventilated cage system with 3 mice per cage containing 100% virgin wood pulp bedding (Harlan Teklad™, Harlan Sprague Dawley Inc., Indianapolis, IA; cat. n.o 7099). Water and food (Harlan Teklad™; cat. no. 8640) were available ad libitum. The mice were maintained on a cycle of 12 h of light and 12 h of dark in an environment with a temperature of 74-76° […]. and 40-60% humidity. All cages underwent 40 air changes hourly in the negative pressure mode, in accordance with manufacturer's recommendations. Both the intake and exhaust air from the system were filtered through HEPA filters to maintain a clean environment. Stock solutions of BzFβ were solubilized in alkaline water (pH 10) and then sterile filtered through 0.22 µm syringe filters. BzFβ used for iv or im injections was diluted in 0.9% saline (normal saline). The stock solutions of the SIINFEKL peptide were prepared in 1× calcium/magnesium free Dulbecco's phosphate-buffered saline (DPBS; ThermoFisher Scientific, cat. no. 14190144).
# Since the oral route of drug delivery is preferred, various doses of BzFβ (1, 2, 4 mg) were administered by oral gavage, immediately following an iv injection of 50 μg SIINFEKL peptide. One-hour post-treatment the blood and spleens from each mouse was collected. […] The cell count was determined using the MUSE cell viability kit (MCH600103) and MUSE Cell Analyzer (Luminex Corp, Austin TX).
# One hour later the splenocytes were isolated and immediately tested for peptide loading or used to activate B3Z cells. […] The colorimetric response was allowed to develop for 15-240 min and the OD 560 nm was measured at various time points using a Synergy HTX plate reader. […]
structure (smiles),measurement,setting,value
"O=C(O)/C=C/c1ccc2occc2c1 [BzFβ, (2E)-3-(1-benzofuran-5-yl)prop-2-enoic acid]",IC50,[1],783 µM
same,"ability of splenocytes to activate B3Z, three routes","[2]; gavage 1 mg, iv 50 μg or im 100 μg after iv 50 μg SIINFEKL, 1 h",successful at enhancing the ability of the splenocytes to activate B3Z
same,"B3Z response, comparison of routes",[2]; iv 50 μg BzFβ,greatest response
same,B3Z response to splenocytes versus peptide alone,"[2]; oral gavage 1, 2, 4 mg after iv 50 μg SIINFEKL, 1 h",significantly greater response
